Holding throughout (test): relative viability (nuclei count vs DMSO), 5 days (fraction); higher = more cells survive
Compound in the test “MK-8033 + Palbociclib”: Cn1cc(-c2cnc3ccc4ccc(CS(=O)(=O)NCc5ccccn5)cc4c(=O)c3c2)cn1 [MK-8033] + CC(=O)c1c(C)c2cnc(Nc3ccc(N4CCNCC4)cn3)nc2n(C2CCCC2)c1=O [Palbociclib] (partner 0.5 µM)
A digest of the protocol: (§1)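 Lung cancer cell lines were pin-tool dosed in 1536-well plates on the day after seeding, with either a lone drug or a fixed anchor-drug dose plus five library-drug doses (not always all listed) in √10 steps. Nuclei were counted on 4× images after 5 days. Relative viability is the ratio of treated-well to vehicle-well nuclei counts, with each value a median of duplicate plates.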

Compound in the test “Irinotecan + Palbociclib”: CCc1c2c(nc3ccc(OC(=O)N4CCC(N5CCCCC5)CC4)cc13)-c1cc3c(c(=O)n1C2)COC(=O)[C@]3(O)CC [Irinotecan] + CC(=O)c1c(C)c2cnc(Nc3ccc(N4CCNCC4)cn3)nc2n(C2CCCC2)c1=O [Palbociclib] (partner 0.5 µM)
A digest of the protocol:
as §1

Compound in the test “RU-SKI 43 + Olaparib”: CC[C@@H](C)CNCC(=O)N1CCC2=C([C@@H]1COC3=CC=CC(=C3)C)C=CS2 [RU-SKI 43] + O=C(c1cc(Cc2n[nH]c(=O)c3ccccc23)ccc1F)N1CCN(C(=O)C2CC2)CC1 [Olaparib] (partner 8 µM)
In outline:
as §1

Compound in the test “Irinotecan + Linsitinib”: CCc1c2c(nc3ccc(OC(=O)N4CCC(N5CCCCC5)CC4)cc13)-c1cc3c(c(=O)n1C2)COC(=O)[C@]3(O)CC [Irinotecan] + C[C@]1(O)C[C@@H](c2nc(-c3ccc4ccc(-c5ccccc5)nc4c3)c3c(N)nccn32)C1 [Linsitinib] (partner 1 µM)
In outline:
as §1

The text below walks through data of the supplement of paper PMC10307832.

Take UMC-11: the relative viability with MK-8033 + Palbociclib (first compound 0.02 µM) came to 0.329; with MK-8033 + Palbociclib (first compound 0.06325 µM), 0.337; with MK-8033 + Palbociclib (first compound 0.2 µM) it was 0.3; with MK-8033 + Palbociclib (first compound 0.6325 µM) it was 0.35; with MK-8033 + Palbociclib (first compound 2 µM), 0.343; with Irinotecan + Palbociclib (first compound 0.6325 µM), 0.343. In addition, the relative viability is 0.336 with Irinotecan + Palbociclib (first compound 2 µM); 0.267 in the test with Irinotecan + Palbociclib (first compound 6.325 µM); 0.186 in the test with Irinotecan + Palbociclib (first compound 20 µM); 0.397 in the test with RU-SKI 43 + Olaparib (first compound 0.1 µM); 0.418 with RU-SKI 43 + Olaparib (first compound 0.3162 µM); 0.399 with RU-SKI 43 + Olaparib (first compound 1 µM). For the same cell line, the relative viability in the test with RU-SKI 43 + Olaparib (first compound 3.162 µM) worked out at 0.383; with RU-SKI 43 + Olaparib (first compound 10 µM), 0.273; with Irinotecan + Linsitinib (first compound 0.6325 µM), 0.724; in the test with Irinotecan + Linsitinib (first compound 2 µM), 0.49; with Irinotecan + Linsitinib (first compound 6.325 µM), 0.281; with Irinotecan + Linsitinib (first compound 20 µM) it was 0.22.
